Patent US11230547B2, “Purine inhibitors of human phosphatidylinositol 3-kinase delta” (Merck Sharp & Dohme Corp., priority 2017, dated 2022)

Assays:
[1] = molecular target: PI3Kalpha (Homo sapiens (Human), UniProt P42336); test: HTRF PI3K biochemical assay, alpha isoform (selectivity versus delta); conditions: relative ratio PI3K-alpha IC50 value / PI3K-delta IC50 value
Outline: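 Recombinant human PI3Kα (0.5 nM) preincubated 15 min with compound, then reacted 1 h at room temperature with 100 uM ATP and 5 uM PIP2. PIP3 formation detected by HTRF competition with biotin-PIP3 for GST-GRP1 PH domain (Eu/APC, 665/620 nm); product lowers signal.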

[2] = molecular target: PI3Kdelta (Homo sapiens (Human), UniProt O00329); test: HTRF PI3K biochemical assay, delta isoform; conditions: 0.3 nM enzyme, 100 uM ATP, 5 uM PIP2, form screened per table
Outline: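 PI3Kδ at 0.3 nM preincubated 15 min with compound, then reacted 1 h at room temperature with 100 uM ATP and 5 uM PIP2. PIP3 product detected by competitive HTRF displacing biotin-PIP3 from GST-GRP1 PH domain, so signal falls with activity. 10-point 3-fold dose response.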

Chain of PI3Kdelta (O00329 whole entry, the tested form may be a part, canonical isoform): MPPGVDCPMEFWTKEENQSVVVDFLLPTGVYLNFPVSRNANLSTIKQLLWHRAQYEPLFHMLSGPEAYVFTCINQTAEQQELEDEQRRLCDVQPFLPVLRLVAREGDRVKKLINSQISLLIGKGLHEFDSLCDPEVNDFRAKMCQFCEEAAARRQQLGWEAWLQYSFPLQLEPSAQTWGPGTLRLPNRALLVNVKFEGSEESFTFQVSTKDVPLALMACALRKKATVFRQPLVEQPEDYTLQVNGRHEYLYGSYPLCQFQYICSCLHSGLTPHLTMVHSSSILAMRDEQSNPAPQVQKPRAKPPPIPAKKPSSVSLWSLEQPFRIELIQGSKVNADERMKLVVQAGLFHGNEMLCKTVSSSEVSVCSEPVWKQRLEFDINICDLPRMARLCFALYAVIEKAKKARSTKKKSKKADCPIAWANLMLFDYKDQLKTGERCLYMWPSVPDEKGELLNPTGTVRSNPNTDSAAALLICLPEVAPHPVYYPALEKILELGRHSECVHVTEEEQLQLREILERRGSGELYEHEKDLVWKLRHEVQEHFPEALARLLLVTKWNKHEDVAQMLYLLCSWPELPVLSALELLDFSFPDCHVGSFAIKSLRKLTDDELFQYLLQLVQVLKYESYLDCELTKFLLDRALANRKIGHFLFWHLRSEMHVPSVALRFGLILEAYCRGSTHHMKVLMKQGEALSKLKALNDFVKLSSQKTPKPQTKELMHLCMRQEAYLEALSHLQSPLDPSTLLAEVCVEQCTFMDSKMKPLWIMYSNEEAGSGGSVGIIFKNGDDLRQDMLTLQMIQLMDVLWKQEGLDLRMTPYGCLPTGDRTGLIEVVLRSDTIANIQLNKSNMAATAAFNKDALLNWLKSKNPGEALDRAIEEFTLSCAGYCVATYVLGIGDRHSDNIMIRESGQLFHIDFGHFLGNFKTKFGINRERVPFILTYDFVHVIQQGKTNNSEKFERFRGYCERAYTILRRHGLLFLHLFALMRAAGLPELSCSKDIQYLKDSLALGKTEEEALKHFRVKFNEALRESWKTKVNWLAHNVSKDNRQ
Chain of PI3Kdelta (P27986 whole entry partner, the tested form may be a part, canonical isoform): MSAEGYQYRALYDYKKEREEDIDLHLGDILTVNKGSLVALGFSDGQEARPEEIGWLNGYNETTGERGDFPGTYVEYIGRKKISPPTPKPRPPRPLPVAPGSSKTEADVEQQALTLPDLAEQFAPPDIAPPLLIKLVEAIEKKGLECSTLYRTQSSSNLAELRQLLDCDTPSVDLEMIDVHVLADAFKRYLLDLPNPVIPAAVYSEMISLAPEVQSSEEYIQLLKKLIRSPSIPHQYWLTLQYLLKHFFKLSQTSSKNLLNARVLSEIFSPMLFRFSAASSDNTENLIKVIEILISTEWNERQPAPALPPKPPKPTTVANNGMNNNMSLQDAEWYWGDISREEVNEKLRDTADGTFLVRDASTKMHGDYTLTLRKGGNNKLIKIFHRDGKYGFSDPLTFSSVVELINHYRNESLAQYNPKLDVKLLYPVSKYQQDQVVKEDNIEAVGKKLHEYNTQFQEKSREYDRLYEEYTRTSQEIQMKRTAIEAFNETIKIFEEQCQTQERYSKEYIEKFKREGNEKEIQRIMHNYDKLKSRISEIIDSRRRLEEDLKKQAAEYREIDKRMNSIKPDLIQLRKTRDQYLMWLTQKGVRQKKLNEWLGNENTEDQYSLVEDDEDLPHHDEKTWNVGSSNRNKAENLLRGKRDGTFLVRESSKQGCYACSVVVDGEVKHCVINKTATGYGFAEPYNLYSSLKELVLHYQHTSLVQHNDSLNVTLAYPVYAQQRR
Chain of PI3Kalpha (P42336 whole entry, the tested form may be a part, canonical isoform): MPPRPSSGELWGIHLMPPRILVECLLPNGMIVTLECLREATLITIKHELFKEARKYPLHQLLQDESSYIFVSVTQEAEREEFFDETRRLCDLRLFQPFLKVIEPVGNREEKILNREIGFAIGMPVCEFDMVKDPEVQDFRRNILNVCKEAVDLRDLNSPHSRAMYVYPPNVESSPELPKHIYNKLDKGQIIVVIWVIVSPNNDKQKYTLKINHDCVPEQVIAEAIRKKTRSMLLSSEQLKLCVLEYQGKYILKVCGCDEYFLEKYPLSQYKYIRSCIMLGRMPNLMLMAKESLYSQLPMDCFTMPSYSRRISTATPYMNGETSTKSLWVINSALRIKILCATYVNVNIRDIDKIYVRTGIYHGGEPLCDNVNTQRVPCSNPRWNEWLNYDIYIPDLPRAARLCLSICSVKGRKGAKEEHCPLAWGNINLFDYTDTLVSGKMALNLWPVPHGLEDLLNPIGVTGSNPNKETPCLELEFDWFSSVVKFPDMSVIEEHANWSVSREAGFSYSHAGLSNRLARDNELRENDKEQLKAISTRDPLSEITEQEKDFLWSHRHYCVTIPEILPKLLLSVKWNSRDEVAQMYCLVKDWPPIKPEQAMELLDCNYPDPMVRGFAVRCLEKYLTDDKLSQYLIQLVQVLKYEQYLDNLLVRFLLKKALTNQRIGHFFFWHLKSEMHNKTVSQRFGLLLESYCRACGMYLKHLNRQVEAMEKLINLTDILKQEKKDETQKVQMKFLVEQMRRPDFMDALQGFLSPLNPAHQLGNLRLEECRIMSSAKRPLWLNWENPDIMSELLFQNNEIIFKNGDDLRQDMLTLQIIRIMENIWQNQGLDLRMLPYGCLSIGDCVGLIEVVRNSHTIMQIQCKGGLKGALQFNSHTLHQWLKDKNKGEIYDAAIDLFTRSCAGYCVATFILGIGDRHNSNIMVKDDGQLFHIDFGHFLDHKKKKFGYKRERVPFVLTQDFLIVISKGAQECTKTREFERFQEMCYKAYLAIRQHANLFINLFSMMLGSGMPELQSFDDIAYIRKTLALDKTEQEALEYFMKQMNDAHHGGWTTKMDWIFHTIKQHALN
Chain of PI3Kalpha (P27986 whole entry partner, the tested form may be a part, canonical isoform): as the sequence (P27986 whole entry partner, the tested form may be a part, canonical isoform) above

| Compound | Selectivity versus PI3Kalpha [1] | IC50 [2] [nM] |
| --- | --- | --- |
| CC(C)c1cnc(-c2cnc(N3CCN(C(=O)C4CC4)[C@H](C)C3)nc2-c2cnn(C)c2)o1 [Compound 5-5, 2-[(3R)-4-(cyclopropylcarbonyl)-3-methylpiperazin-1-yl]-5-[5-(1-methylethyl)-1,3-oxazol-2-yl]-4-(1-methyl-1H-pyrazol-4-yl)pyrimidine] | >10 | 410 |
| CC(C)C[C@@H]1CN(c2nc(-c3cnn(C)c3)ncc2C#N)CCN1C(=O)C1CC1 [Compound 5-6, 4-[(3R)-4-(cyclopropylcarbonyl)-3-(2-methylpropyl)piperazin-1-yl]-2-(1-methyl-1H-pyrazol-4-yl)pyrimidine-5-carbonitrile] | >10 | 190 |
| Cn1cc(-c2ncc(C#N)c(N3CCN(C(=O)C4CC4)[C@H](CO)C3)n2)cn1 [Compound 5-7, 4-[(3S)-4-(cyclopropylcarbonyl)-3-(hydroxymethyl)piperazin-1-yl]-2-(1-methyl-1H-pyrazol-4-yl)pyrimidine-5-carbonitrile] | >10 | 760 |
| CC(C)C#Cc1cnc(N2CCN(C(=O)C3CC3)[C@H](C)C2)nc1-c1cnn(C)c1 [Compound 5-8, 2-[(3R)-4-(cyclopropylcarbonyl)-3-methylpiperazin-1-yl]-5-(3-methylbut-1-yn-1-yl)-4-(1-methyl-1H-pyrazol-4-yl)pyrimidine] | >10 | 12 |
| C#Cc1cnc(N2CCN(C(=O)C3CC3)[C@H](C)C2)nc1-c1cnn(C)c1 [Compound 5-9, 2-[(3R)-4-(cyclopropylcarbonyl)-3-methylpiperazin-1-yl]-5-ethynyl-4-(1-methyl-1H-pyrazol-4-yl)pyrimidine] | >10 | 50 |
| CSc1cnc(N2CCN(C(=O)C3CC3)[C@H](C)C2)nc1-c1cnn(C)c1 [Compound 5-10, 2-[(3R)-4-(cyclopropylcarbonyl)-3-methylpiperazin-1-yl]-4-(1-methyl-1H-pyrazol-4-yl)-5-(methylsulfanyl)pyrimidine] | >10 | 340 |
| C[C@@H]1CN(c2ncc(C(F)F)c(-c3cnn(C)c3)n2)CCN1C(=O)C1CC1 [Compound 5-11, 2-[(3R)-4-(cyclopropylcarbonyl)-3-methylpiperazin-1-yl]-5-(difluoromethyl)-4-(1-methyl-1H-pyrazol-4-yl)pyrimidine] | >10 | 370 |
| CCOC(=O)c1cnc(N2CCN(C(=O)C3CC3)[C@H](C)C2)nc1-c1cnn(C)c1 [Compound 5-12, ethyl 2-[(3R)-4-(cyclopropylcarbonyl)-3-methylpiperazin-1-yl]-4-(1-methyl-1H-pyrazol-4-yl)pyrimidine-5-carboxylate] | >10 | 180 |
| C[C@@H]1CN(c2nc(-c3cnn(C)c3)ncc2Cl)CCN1C(=O)C1CC1 [Compound 5-13, 5-chloro-4-[(3R)-4-(cyclopropylcarbonyl)-3-methylpiperazin-1-yl]-2-(1-methyl-1H-pyrazol-4-yl)pyrimidine] | >10 | 620 |

Now from value to compound:

| Selectivity versus PI3Kalpha [1] | IC50 [2] [nM] | Compound |
| --- | --- | --- |
| >10 | 130 | C[C@@H]1CN(c2nc(-c3cnn(C)c3)nc(N)c2C#N)CCN1C(=O)C1CC1 [Compound 6-1, 4-amino-6-[(3R)-4-(cyclopropylcarbonyl)-3-methylpiperazin-1-yl]-2-(1-methyl-1H-pyrazol-4-yl)pyrimidine-5-carbonitrile] |
| >10 | 5.6 | CC(C)NC(=O)Nc1nc(-c2cnn(C)c2)nc(N2CCN(C(=O)C3CC3)[C@H](C)C2)c1C#N [Compound 6-2, 1-{5-cyano-6-[(3R)-4-(cyclopropylcarbonyl)-3-methylpiperazin-1-yl]-2-(1-methyl-1H-pyrazol-4-yl)pyrimidin-4-yl}-3-(1-methylethyl)urea] |
| >10 | 480 | CC(=O)Nc1nc(-c2cnn(C)c2)nc(N2CCN(C(=O)C3CC3)[C@H](C)C2)c1C#N [Compound 6-3, N-{5-cyano-6-[(3R)-4-(cyclopropylcarbonyl)-3-methylpiperazin-1-yl]-2-(1-methyl-1H-pyrazol-4-yl)pyrimidin-4-yl}acetamide] |
| >10 | 8.3 | C[C@@H]1CN(c2nc(-c3cnn(C)c3)nc(NCC(F)(F)F)c2C#N)CCN1C(=O)C1CC1 [Compound 6-4, 4-[(3R)-4-(cyclopropylcarbonyl)-3-methylpiperazin-1-yl]-2-(1-methyl-1H-pyrazol-4-yl)-6-[(2,2,2-trifluoroethyl)amino]pyrimidine-5-carbonitrile] |
| >10 | 140 | C[C@@H]1CN(c2nc(-c3cnn(C)c3)nc(Cl)c2C#N)CCN1C(=O)C1CC1 [Compound 6-5, 4-chloro-6-[(3R)-4-(cyclopropylcarbonyl)-3-methylpiperazin-1-yl]-2-(1-methyl-1H-pyrazol-4-yl)pyrimidine-5-carbonitrile] |
| >10 | 220 | CCc1nc(-c2cnn(C)c2)nc(N2CCN(C(=O)C3CC3)[C@H](C)C2)c1C#N [Compound 6-6, 4-[(3R)-4-(cyclopropylcarbonyl)-3-methylpiperazin-1-yl]-6-ethyl-2-(1-methyl-1H-pyrazol-4-yl)pyrimidine-5-carbonitrile] |
| >10 | 80 | C[C@@H]1CN(c2nc(-c3cnn(C)c3)nc(NC3CCC3)c2C#N)CCN1C(=O)C1CC1 [Compound 6-7, 4-(cyclobutylamino)-6-[(3R)-4-(cyclopropylcarbonyl)-3-methylpiperazin-1-yl]-2-(1-methyl-1H-pyrazol-4-yl)pyrimidine-5-carbonitrile] |
| >10 | 19 | C[C@@H]1CN(c2nc(-c3cnn(C)c3)nc(Nc3ccccc3)c2C#N)CCN1C(=O)C1CC1 [Compound 6-8, 4-[(3R)-4-(cyclopropylcarbonyl)-3-methylpiperazin-1-yl]-2-(1-methyl-1H-pyrazol-4-yl)-6-(phenylamino)pyrimidine-5-carbonitrile] |
| >10 | 30 | C[C@@H]1CN(c2nc(Cl)c(C#N)c(-c3cnn(C)c3)n2)CCN1C(=O)C1CC1 [Compound 6-9, 4-chloro-2-[(3R)-4-(cyclopropylcarbonyl)-3-methylpiperazin-1-yl]-6-(1-methyl-1H-pyrazol-4-yl)pyrimidine-5-carbonitrile] |
| >10 | 180 | Cc1nc(-c2cnn(C)c2)nc(N2CCN(C(=O)C3CC3)[C@H](C)C2)c1C#N [Compound 6-10, 4-[(3R)-4-(cyclopropylcarbonyl)-3-methylpiperazin-1-yl]-6-methyl-2-(1-methyl-1H-pyrazol-4-yl)pyrimidine-5-carbonitrile] |
| >10 | 160 | C[C@@H]1CN(c2nc(-c3cnn(C)c3CCC(F)(F)F)ncc2C#N)CCN1C(=O)C1CC1 [Compound 6-11, 4-[(3R)-4-(cyclopropylcarbonyl)-3-methylpiperazin-1-yl]-2-[1-methyl-5-(3,3,3-trifluoropropyl)-1H-pyrazol-4-yl]pyrimidine-5-carbonitrile] |
| >10 | 58 | COCCc1nc(N2CCN(C(=O)C3CC3)[C@H](C)C2)nc(-c2cnn(C)c2)c1C#N [Compound 6-12, 2-[(3R)-4-(cyclopropylcarbonyl)-3-methylpiperazin-1-yl]-4-(2-methoxyethyl)-6-(1-methyl-1H-pyrazol-4-yl)pyrimidine-5-carbonitrile] |
| >10 | 180 | C[C@@H]1CN(c2ncc(C#N)c(-c3cn(C)nc3C#N)n2)CCN1C(=O)C1CC1 [Compound 6-13, 4-(3-cyano-1-methyl-1H-pyrazol-4-yl)-2-[(3R)-4-(cyclopropylcarbonyl)-3-methylpiperazin-1-yl]pyrimidine-5-carbonitrile] |
| >10 | 21 | C[C@@H]1CN(c2ncc(C#N)c(-c3cn(C)nc3N)n2)CCN1C(=O)C1CC1 [Compound 6-14, 4-(3-amino-1-methyl-1H-pyrazol-4-yl)-2-[(3R)-4-(cyclopropylcarbonyl)-3-methylpiperazin-1-yl]pyrimidine-5-carbonitrile] |
| >10 | 83 | C[C@@H]1CN(c2nc(-c3cnn4c3CCC4)ncc2C#N)CCN1C(=O)C1CC1 [Compound 6-15, 4-[(3R)-4-(cyclopropylcarbonyl)-3-methylpiperazin-1-yl]-2-(5,6-dihydro-4H-pyrrolo[1,2-b]pyrazol-3-yl)pyrimidine-5-carbonitrile] |
| >10 | 16 | C[C@@H]1CN(c2nc(-c3cnn(C)c3)nc(NC(=O)NCC(F)(F)F)c2C#N)CCN1C(=O)C1CC1 [Compound 6-16, 1-{5-cyano-6-[(3R)-4-(cyclopropylcarbonyl)-3-methylpiperazin-1-yl]-2-(1-methyl-1H-pyrazol-4-yl)pyrimidin-4-yl}-3-(2,2,2-trifluoroethyl)urea] |
| >10 | 5 | C[C@@H]1CN(c2nc(-c3cnn(C)c3)nc(NC(=O)NC3CCC3)c2C#N)CCN1C(=O)C1CC1 [Compound 6-17, 1-{5-cyano-6-[(3R)-4-(cyclopropylcarbonyl)-3-methylpiperazin-1-yl]-2-(1-methyl-1H-pyrazol-4-yl)pyrimidin-4-yl}-3-cyclobutylurea] |
| >10 | 49 | C[C@@H]1CN(c2nc(-c3cnn(C)c3)nc(NCC3COC3)c2C#N)CCN1C(=O)C1CC1 [Compound 6-18, 4-[(3R)-4-(cyclopropylcarbonyl)-3-methylpiperazin-1-yl]-2-(1-methyl-1H-pyrazol-4-yl)-6-[(oxetan-3-ylmethyl)amino]pyrimidine-5-carbonitrile] |
